The values that follow are results of earlier work, collected in patent US5346895A, “Chromans and thiochromans with heteroarylethynyl substituents at the 7-position having retinoid-like biological activity” (Allergan, Inc., priority 1993, dated 1994).

In this series the test system is ornithine decarboxylase (ODC), TPA induced ODC activity. The conditions noted are these: result in words, retinoic acid, background knowledge.

Consider `CC1=C(/C=C/C(C)=C/C=C/C(C)=C/C(=O)O)C(C)(C)CCC1` [Retinoic acid], for which the “inhibition of induction of ODC activity by TPA” value was “inhibits this induction of ODC activity by TPA”.
